From the NIST ThermoML archive (doi:10.1021/acs.jced.9b00396)

Conditions: Liquid; for speed of sound: Frequency=3 MHz, Single path-length method; for mass density: Vibrating tube method

OCc1ccccc1 [benzenemethanol]
Conditions	mass density [kg/m3]	speed of sound [m/s]
293.15 K, 100 kPa	1045.6	1541
298.15 K, 100 kPa	1041.8	1526
298.15 K, 500 kPa	1042	–
298.15 K, 1000 kPa	1042	–
298.15 K, 2500 kPa	1043	–
298.15 K, 5000 kPa	1044	–
298.15 K, 7500 kPa	1045	–
298.15 K, 10000 kPa	1046	–
298.15 K, 12500 kPa	1047	–
298.15 K, 15000 kPa	1049	–
298.15 K, 17500 kPa	1050	–
298.15 K, 20000 kPa	1051	–
298.15 K, 22500 kPa	1052	–
298.15 K, 25000 kPa	1053	–
298.15 K, 27500 kPa	1055	–
298.15 K, 30000 kPa	1056	–
298.15 K, 32500 kPa	1057	–
298.15 K, 35000 kPa	1058	–
313.15 K, 100 kPa	1030	1479
318.15 K, 500 kPa	1026	–
318.15 K, 1000 kPa	1026	–
318.15 K, 2500 kPa	1027	–
318.15 K, 5000 kPa	1028	–
318.15 K, 7500 kPa	1030	–
318.15 K, 10000 kPa	1031	–
318.15 K, 12500 kPa	1032	–
318.15 K, 15000 kPa	1034	–
318.15 K, 17500 kPa	1035	–
318.15 K, 20000 kPa	1036	–
318.15 K, 22500 kPa	1037	–
318.15 K, 25000 kPa	1039	–
318.15 K, 27500 kPa	1040	–
318.15 K, 30000 kPa	1041	–
318.15 K, 32500 kPa	1042	–
318.15 K, 35000 kPa	1043	–
333.15 K, 100 kPa	1011.3	1417
338.15 K, 500 kPa	1010	–
338.15 K, 1000 kPa	1010	–
338.15 K, 2500 kPa	1011	–
338.15 K, 5000 kPa	1013	–
338.15 K, 7500 kPa	1014	–
338.15 K, 10000 kPa	1016	–
338.15 K, 12500 kPa	1017	–
338.15 K, 15000 kPa	1018	–
338.15 K, 17500 kPa	1020	–
338.15 K, 20000 kPa	1021	–
338.15 K, 22500 kPa	1023	–
338.15 K, 25000 kPa	1024	–
338.15 K, 27500 kPa	1025	–
338.15 K, 30000 kPa	1026	–
338.15 K, 32500 kPa	1028	–
338.15 K, 35000 kPa	1029	–
358.15 K, 500 kPa	994	–
358.15 K, 1000 kPa	994	–
358.15 K, 2500 kPa	995	–
358.15 K, 5000 kPa	997	–
358.15 K, 7500 kPa	998	–
358.15 K, 10000 kPa	1000	–
358.15 K, 12500 kPa	1001	–
358.15 K, 15000 kPa	1003	–
358.15 K, 17500 kPa	1005	–
358.15 K, 20000 kPa	1006	–
358.15 K, 22500 kPa	1007	–
358.15 K, 25000 kPa	1009	–
358.15 K, 27500 kPa	1010	–
358.15 K, 30000 kPa	1012	–
358.15 K, 32500 kPa	1013	–
358.15 K, 35000 kPa	1014	–
378.15 K, 500 kPa	977	–
378.15 K, 1000 kPa	978	–
378.15 K, 2500 kPa	979	–
378.15 K, 5000 kPa	980	–
378.15 K, 7500 kPa	982	–
378.15 K, 10000 kPa	984	–
378.15 K, 12500 kPa	985	–
378.15 K, 15000 kPa	987	–
378.15 K, 17500 kPa	989	–
378.15 K, 20000 kPa	990	–
378.15 K, 22500 kPa	992	–
378.15 K, 25000 kPa	994	–
378.15 K, 27500 kPa	995	–
378.15 K, 30000 kPa	997	–
378.15 K, 32500 kPa	998	–
378.15 K, 35000 kPa	1000	–
398.15 K, 500 kPa	960	–
398.15 K, 1000 kPa	960	–
398.15 K, 2500 kPa	962	–
398.15 K, 5000 kPa	963	–
398.15 K, 7500 kPa	965	–
398.15 K, 10000 kPa	967	–
398.15 K, 12500 kPa	969	–
398.15 K, 15000 kPa	971	–
398.15 K, 17500 kPa	973	–
398.15 K, 20000 kPa	974	–
398.15 K, 22500 kPa	976	–
398.15 K, 25000 kPa	978	–
398.15 K, 27500 kPa	979	–
398.15 K, 30000 kPa	981	–
398.15 K, 32500 kPa	983	–
398.15 K, 35000 kPa	985	–
418.15 K, 500 kPa	942	–
418.15 K, 1000 kPa	943	–
418.15 K, 2500 kPa	944	–
418.15 K, 5000 kPa	946	–
418.15 K, 7500 kPa	948	–
418.15 K, 10000 kPa	950	–
418.15 K, 12500 kPa	952	–
418.15 K, 15000 kPa	954	–
418.15 K, 17500 kPa	956	–
418.15 K, 20000 kPa	958	–
418.15 K, 22500 kPa	960	–
418.15 K, 25000 kPa	962	–
418.15 K, 27500 kPa	964	–
418.15 K, 30000 kPa	965	–
418.15 K, 32500 kPa	967	–
418.15 K, 35000 kPa	969	–
438.15 K, 500 kPa	924	–
438.15 K, 1000 kPa	924	–
438.15 K, 2500 kPa	926	–
438.15 K, 5000 kPa	928	–
438.15 K, 7500 kPa	930	–
438.15 K, 10000 kPa	933	–
438.15 K, 12500 kPa	935	–
438.15 K, 15000 kPa	937	–
438.15 K, 17500 kPa	939	–
438.15 K, 20000 kPa	941	–
438.15 K, 22500 kPa	944	–
438.15 K, 25000 kPa	946	–
438.15 K, 27500 kPa	948	–
438.15 K, 30000 kPa	949	–
438.15 K, 32500 kPa	952	–
438.15 K, 35000 kPa	953	–
458.15 K, 500 kPa	904	–
458.15 K, 1000 kPa	905	–
458.15 K, 2500 kPa	907	–
458.15 K, 5000 kPa	909	–
458.15 K, 7500 kPa	912	–
458.15 K, 10000 kPa	915	–
458.15 K, 12500 kPa	917	–
458.15 K, 15000 kPa	920	–
458.15 K, 17500 kPa	922	–
458.15 K, 20000 kPa	924	–
458.15 K, 22500 kPa	927	–
458.15 K, 25000 kPa	929	–
458.15 K, 27500 kPa	931	–
458.15 K, 30000 kPa	933	–
458.15 K, 32500 kPa	935	–
458.15 K, 35000 kPa	937	–
473.15 K, 500 kPa	889	–
473.15 K, 1000 kPa	891	–
473.15 K, 2500 kPa	892	–
473.15 K, 5000 kPa	895	–
473.15 K, 7500 kPa	898	–
473.15 K, 10000 kPa	901	–
473.15 K, 12500 kPa	903	–
473.15 K, 15000 kPa	906	–
473.15 K, 17500 kPa	909	–
473.15 K, 20000 kPa	911	–
473.15 K, 22500 kPa	914	–
473.15 K, 25000 kPa	916	–
473.15 K, 27500 kPa	919	–
473.15 K, 30000 kPa	921	–
473.15 K, 32500 kPa	923	–
473.15 K, 35000 kPa	925	–
